Results: publication PMC3174232, “Identification of a Negative Allosteric Site on Human α4β2 and α3β4 Neuronal Nicotinic Acetylcholine Receptors” (PLoS ONE, 2011)
Where two headings read alike, the source gives them in different places.

Tests used:
hα4β2-F118L nAChRs = biological target: T1, hα4β2-F118L nAChRs (Homo sapiens, UniProt P17787+P43681, F144L); assay: Calcium accumulation assay, HEK ts201 cells transiently expressing hα4β2 β2-F118L mutant nAChRs; type: cell-based
T1 construct: Human nAChR α4 and β2 full-length cDNAs in the vector pSP64 (poly A); expressed in transfected cells; host or cells: HEK ts201 cells
Method: (§1) Calcium accumulation assays were performed as described previously with slight modifications. Briefly, HEK ts201 cells, transiently expressing hα4β2WT nAChRs or hα4β2M nAChRs, were plated on 96-well plates at a density of 2.6×10^5 cells per well. Twenty-four hours after plating, the cells were washed and then incubated with fluo-4-AM for 30 minutes at 37°C followed by 30 minutes at 24°C. After incubation, cells were washed and fluorescence was measured at ∼0.7 second intervals using a fluid handling integrated fluorescence plate reader (Flex Station, Molecular Devices, Sunnyvale, CA). […] Functional responses were quantified by first calculating the net fluorescence changes (the difference between control sham-treated and control agonist-treated groups). […] Results were calculated from the number of observations (n) performed in triplicate. Curve fitting was performed by Prism software (GraphPad, San Diego, CA). EC50 values, IC50 values, and Hill coefficients were obtained by averaging values generated from each individual concentration-response curve. EC50 values and IC50 values were expressed as geometric means (95% confidence limits). Experimental values were compared using the t-test (p<0.005), as indicated.
(§2) Human nAChR α4 and β2 full-length cDNAs in the vector pSP64 (poly A) were obtained from Dr. Jon Lindstrom (University of Pennsylvania) and used as the template for mutagenesis (β2) and for transient expression (α4 and β2). A single mutation was made in the β2 subunit using the Quik Change Lightning Multi Site-Directed Mutagenesis Kit (Stratagene) following the manufacturers instructions. Primers were designed using the QuikChange Primer Design Program (Stratagene) and Oligo 4.0 (National Biosciences) and synthesized by Invitrogen. Primers were designed to replace the threonine residue at position 58 in the hβ2 subunit with a lysine found at the similar position in the hβ4 subunit. The following primer was designed to change the threonine (ACC) at position 58 in the β2 subunit to lysine (AAG): β2 mutant 5′-[…]-3′. The underlined nucleotides defined the mutation. Primers were also designed to replace the phenylalanine residue at position 118 in the hβ2 subunit with a leucine found at the similar position in the hβ4 subunit. The following primer was designed to change the phenylalanine (TTC) at position 118 in the β2 subunit to leucine (TTG): 5′-[…]-3′ and 5′- […]-3′. […] The mutant hβ2 cDNAs were subcloned into pcDNA 3.1+Zeo (Invitrogen). The wild type hα4 and hβ2 cDNAs were also subcloned into the pcDNA 3.1+ and pcDNA 3.1+ Zeo vectors respectively. All cDNA clones were completely sequenced using a 3730 DNA Analyzer (Applied Biosystems) at the Ohio State University Plant-Microbe Genomics Facility. DNAs used for transfection were purified using PureLink High Pure Mini or Midi Kits (Invitrogen). HEK ts201 cells (kind gift of Dr. Rene Anand, Ohio State University Department of Pharmacology) were transiently transfected with wild-type hα4 mutant hβ2 or wild-type hα4β2 cDNAs using Lipofectamine 2000 (Invitrogen) in 60 mm dishes. After 8 hours, the cells were replated into 96 well dishes for the intracellular calcium accumulation assays.

hα4β2-T58K nAChRs = biological target: T2, hα4β2-T58K nAChRs (Homo sapiens, UniProt P17787+P43681, T84K); assay: Calcium accumulation assay, HEK ts201 cells transiently expressing hα4β2 β2-T58K mutant nAChRs; type: cell-based
T2 construct: Human nAChR α4 and β2 full-length cDNAs in the vector pSP64 (poly A); expressed in transfected cells; host or cells: HEK ts201 cells
Method: as §1, §2

human α3β4 nAChRs = conditions: tested at concentrations up to 100 µM; cited from earlier work
hα4β2 nAChRs = conditions: introduction, low µM range; cited from earlier work
hα4β2WT nAChRs = biological target: T3, hα4β2WT nAChRs (Homo sapiens, UniProt P17787+P43681); assay: Calcium accumulation assay, HEK ts201 cells transiently expressing wild-type hα4β2 nAChRs; type: cell-based
T3 construct: Human nAChR α4 and β2 full-length cDNAs in the vector pSP64 (poly A); expressed in transfected cells; host or cells: HEK ts201 cells
Method: as §1, §2

[1] = Solubility limit in functional assay; type: physicochemical; conditions: read-out: highest soluble test concentration
[2] = biological target: recombinant hα3β4 receptors; parameters: method as in PMID 8996215, PMID 11044726, PMID 9454827; conditions: read-out: expt. potency, EC50, cited from earlier work
[3] = biological target: recombinant hα4β2 receptors; parameters: method as in PMID 8996215, PMID 11044726, PMID 9454827; conditions: read-out: expt. potency, EC50, cited from earlier work

T1 sequence (P43681 27-627, stated change not applied): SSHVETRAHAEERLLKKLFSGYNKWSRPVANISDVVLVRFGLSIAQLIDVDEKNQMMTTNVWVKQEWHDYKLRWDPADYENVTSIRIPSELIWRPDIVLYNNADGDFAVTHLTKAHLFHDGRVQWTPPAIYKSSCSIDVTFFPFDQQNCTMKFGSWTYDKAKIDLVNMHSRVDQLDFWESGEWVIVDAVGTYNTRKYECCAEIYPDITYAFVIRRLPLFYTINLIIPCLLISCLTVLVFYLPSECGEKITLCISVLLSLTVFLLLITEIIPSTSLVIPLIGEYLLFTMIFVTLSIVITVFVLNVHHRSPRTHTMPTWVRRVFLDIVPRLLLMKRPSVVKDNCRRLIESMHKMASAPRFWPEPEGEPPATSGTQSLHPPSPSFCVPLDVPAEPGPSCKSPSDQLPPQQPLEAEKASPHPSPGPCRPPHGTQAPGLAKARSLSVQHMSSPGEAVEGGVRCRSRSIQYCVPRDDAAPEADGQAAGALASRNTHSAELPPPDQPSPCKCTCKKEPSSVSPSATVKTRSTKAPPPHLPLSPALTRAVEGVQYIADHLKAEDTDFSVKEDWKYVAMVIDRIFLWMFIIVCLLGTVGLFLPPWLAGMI
T1 sequence (P17787 26-502 F144L): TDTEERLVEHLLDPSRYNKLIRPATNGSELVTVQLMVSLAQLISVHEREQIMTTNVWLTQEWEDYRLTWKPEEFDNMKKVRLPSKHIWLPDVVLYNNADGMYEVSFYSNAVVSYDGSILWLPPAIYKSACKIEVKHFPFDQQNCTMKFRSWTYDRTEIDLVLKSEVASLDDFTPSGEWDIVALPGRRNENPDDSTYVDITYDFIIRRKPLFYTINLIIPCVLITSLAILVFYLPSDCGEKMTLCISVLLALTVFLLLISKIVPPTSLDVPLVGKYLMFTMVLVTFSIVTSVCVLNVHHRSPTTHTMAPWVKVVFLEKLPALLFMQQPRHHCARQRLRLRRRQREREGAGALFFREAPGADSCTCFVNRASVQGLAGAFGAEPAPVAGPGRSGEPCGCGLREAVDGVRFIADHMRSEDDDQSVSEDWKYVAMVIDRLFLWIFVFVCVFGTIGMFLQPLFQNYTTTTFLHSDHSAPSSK
T2 sequence (P43681 27-627, stated change not applied): as the sequence (P43681 27-627, stated change not applied) above
T2 sequence (P17787 26-502 T84K): as the sequence (P17787 26-502 F144L) above, with T59K, L119F counted along it
T3 sequence (P43681 29-627 limits assumed): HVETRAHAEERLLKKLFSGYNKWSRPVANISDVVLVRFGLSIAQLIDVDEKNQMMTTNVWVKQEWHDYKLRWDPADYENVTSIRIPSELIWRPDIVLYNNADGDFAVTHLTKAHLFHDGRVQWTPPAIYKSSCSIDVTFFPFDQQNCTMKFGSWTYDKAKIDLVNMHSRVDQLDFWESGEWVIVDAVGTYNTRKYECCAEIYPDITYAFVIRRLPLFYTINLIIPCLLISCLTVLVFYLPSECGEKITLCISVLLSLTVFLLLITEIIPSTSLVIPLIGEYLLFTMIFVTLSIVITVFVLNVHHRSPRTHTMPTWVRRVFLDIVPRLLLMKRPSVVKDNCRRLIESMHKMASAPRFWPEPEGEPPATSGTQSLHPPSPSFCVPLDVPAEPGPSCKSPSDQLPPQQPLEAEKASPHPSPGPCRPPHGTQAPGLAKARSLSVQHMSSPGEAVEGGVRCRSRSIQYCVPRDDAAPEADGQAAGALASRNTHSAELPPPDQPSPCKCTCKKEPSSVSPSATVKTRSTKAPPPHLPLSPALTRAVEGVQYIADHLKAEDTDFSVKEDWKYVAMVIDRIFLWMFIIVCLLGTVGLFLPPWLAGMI
T3 sequence (P17787 26-502): as the sequence (P17787 26-502 F144L) above, with L119F counted along it

SMILES | IC50 (hα4β2-F118L nAChRs) [µM] | n H, Hill coefficient (hα4β2-T58K nAChRs; hα4β2-T58K nAChRs) | IC50 (hα4β2-T58K nAChRs; read-out: IC50) [µM] | n H, Hill coefficient (hα4β2WT nAChRs; hα4β2-WT nAChRs) | IC50 (hα4β2WT nAChRs; read-out: IC50) [µM] | EC50 ([2]; hα3β4) [µM] | EC50 ([3]; hα4β2) [µM] | n H, Hill coefficient (hα4β2-F118L nAChRs; hα4β2-F118L nAChRs) | further results
O=C(OCC1CCCN(CCCc2ccccc2)C1)c1ccccc1-c1ccccc1 (stereo not shown) [KAB-18] | > 100 | −1.0 | 71.8 | −1.2 | 8.5 |  |  |  | inhibitory activity on F118L mutant (hα4β2-F118L nAChRs; at concentrations up to 100 µM): loss of inhibitory activity; decrease in potency, β2T58K mutant vs wild-type (hα4β2-T58K nAChRs; ratio of IC50 71.8 µM (T58K) to 8.5 µM (WT)): eight-fold decrease; functional activity on human α3β4 nAChRs (human α3β4 nAChRs): no functional activity; potency (inhibition of hα4β2 nAChRs) (hα4β2 nAChRs): 10 µM; solubility [1]: ≤ 100 µM
CC(=O)OCC[N+](C)(C)C [acetylcholine] |  |  |  |  |  | 203 | 100 |  | 
COc1cc2c3cc1Oc1cc(ccc1O)C[C@@H]1c4c(cc(OC)c(O)c4Oc4ccc(cc4)C[C@@H]3N(C)CC2)CC[N+]1(C)C [d-tubocurarine] | 6.5 |  |  |  |  |  |  |  | n H, Hill coefficient (hα4β2-F118L nAChRs): −0.9; IC50 (hα4β2-T58K nAChRs): 6.2 µM; n H, Hill coefficient (hα4β2-T58K nAChRs): −0.6; IC50 (hα4β2WT nAChRs): 6.3 µM; n H, Hill coefficient (hα4β2WT nAChRs): −1.0
Clc1ccc(C2CC3CCC2N3)cn1 (stereo not shown) [epibatidine] |  | 0.7 |  | 0.9 |  | 0.151 | 0.043 | 0.8 | 
CNC1(C)C2CCC(C2)C1(C)C (stereo not shown) [mecamylamine] |  | −0.6 | 0.2 | −1.4 | 0.2 |  |  | −1.1 | IC50 (hα4β2-F118L nAChRs; read-out: IC50): 0.4 µM
CN1CCC[C@H]1c1cccnc1 [nicotine] |  |  |  |  |  |  |  |  | EC50 [2]: 40.3 µM; EC50 [3]: 3.5 µM
